The source of these data is US10093623B2, “Cyclic amides as MetAP-2 inhibitors” (MERCK PATENT GmbH, priority 2012, dated 2018).

Bounds are passed on as bounds.

The target in the test is MetAP-2 (Homo sapiens, UniProt P50579). As to the kind of experiment: MetAP-2 activity measurement (coupled enzymatic reactions, Met-Arg-Ser substrate, dianisidine detection at 450 nm). As to conditions: Inhibition of MetAP-2; read-out: IC50 enzyme. It counts as biochemical. The gist of the method: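 Coupled continuous assay with Met-Arg-Ser tripeptide substrate: released methionine oxidised by L-amino acid oxidase to give H2O2, which peroxidase uses to oxidise dianisidine, followed at 450 nm. Activity taken as slope of absorbance versus time over the visually linear region; dianisidine extinction coefficient converts to mol Met per time.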
Chain of MetAP-2 (P50579 whole entry, species assumed): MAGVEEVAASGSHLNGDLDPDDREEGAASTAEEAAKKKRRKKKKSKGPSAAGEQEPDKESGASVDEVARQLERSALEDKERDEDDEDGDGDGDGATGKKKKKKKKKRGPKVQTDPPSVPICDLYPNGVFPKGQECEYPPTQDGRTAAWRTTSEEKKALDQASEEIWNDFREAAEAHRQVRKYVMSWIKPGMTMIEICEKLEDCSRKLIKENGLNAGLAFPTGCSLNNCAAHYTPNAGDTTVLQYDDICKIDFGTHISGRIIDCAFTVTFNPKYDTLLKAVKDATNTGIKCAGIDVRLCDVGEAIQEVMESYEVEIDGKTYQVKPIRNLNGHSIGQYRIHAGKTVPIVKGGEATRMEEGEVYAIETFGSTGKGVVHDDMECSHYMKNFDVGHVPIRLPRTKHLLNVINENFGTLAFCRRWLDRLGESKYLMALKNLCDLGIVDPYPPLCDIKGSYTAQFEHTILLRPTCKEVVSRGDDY

On to `CC(=O)Nc1ccc(N2CC[C@](O)(C(=O)NCCc3cc(F)cc(Cl)c3)C2=O)cn1` [A155, N-[2-(3-Chloro-5-fluorophenyl)-ethyl]-(S)-1-(6-acetylamino-pyridin-3-yl)-3-hydroxy-2-oxo-pyrrolidine-3-carboxamide], for which the half-inhibitory concentration (IC50) is 10 to 1000 nM.

Take `CC(=O)Nc1ccc(N2CC[C@@](O)(C(=O)NCCc3cc(F)cc(Cl)c3)C2=O)cn1` [A156, N-[2-(3-Chloro-5-fluorophenyl)-ethyl]-(R)-1-(6-acetylamino-pyridin-3-yl)-3-hydroxy-2-oxo-pyrrolidine-3-carboxamide]: the 50% inhibitory concentration (IC50) was greater than 10000 nM.

Consider `CNC(=O)[C@H]1CC[C@H](N2CCC(O)(C(=O)NCc3cc(F)cc(Cl)c3)C2=O)CC1` (some centres unmarked) [A157, N-(3-Chloro-5-fluorobenzyl)-3-hydroxy-1-(4-methylcarbamoyl-cyclohexyl)-2-oxopyrrolidine-3-carboxamide], for which the IC50 is 1000 to 10000 nM. As for `O=C1CCc2cc(NC(=O)C3CCN(c4ccc5c(c4)CCC(=O)N5)C3=O)ccc2N1` (centres unmarked) [A158, N-(2-Oxo-1,2,3,4-tetrahydro-quinolin-6-yl)-2-oxo-1-(2-oxo-1,2,3,4-tetrahydroquinolin-6-yl)-pyrrolidine-3-carboxamide], the IC50 is greater than 10000 nM. For `NC(=O)c1cccc(N2CC[C@@](O)(C(=O)NCCc3cc(F)cc(Cl)c3)C2=O)c1` [A159, N-[2-(3-Chloro-5-fluorophenyl)-ethyl]-(R)-1-(3-carbamoyl-phenyl)-3-hydroxy-2-oxo-pyrrolidine-3-carboxamide] the value was 1000 to 10000 nM; for `CNC(=O)c1cccc(N2CC[C@](O)(C(=O)NCc3cc(F)cc(Cl)c3)C2=O)c1` [A161, N-(3-Chloro-5-fluorobenzyl)-(S)-3-hydroxy-1-(3-methyl-carbamoylphenyl)-2-oxo-pyrrolidine-3-carboxamide], 10 to 1000 nM. Turning to `CNC(=O)c1cccc(N2CC[C@@](O)(C(=O)NCc3cc(F)cc(Cl)c3)C2=O)c1` [A162, N-(3-Chloro-5-fluorobenzyl)-(R)-3-hydroxy-1-(3-methyl-carbamoylphenyl)-2-oxo-pyrrolidine-3-carboxamide], the IC50 is greater than 10000 nM. Regarding `O=C(NC1CCC1)c1cccc(N2CC[C@](O)(C(=O)NCc3cc(F)cc(Cl)c3)C2=O)c1` [A163, N-(3-Chloro-5-fluorobenzyl)-(S)-1-(3-cyclobutylcarbamoyl-phenyl)-3-hydroxy-2-oxo-pyrrolidine-3-carboxamide], the IC50 was in the range of 10 to 1000 nM. As to `O=C(NC1CCC1)c1cccc(N2CC[C@@](O)(C(=O)NCc3cc(F)cc(Cl)c3)C2=O)c1` [A164, N-(3-Chloro-5-fluorobenzyl)-(R)-1-(3-cyclobutylcarbamoyl-phenyl)-3-hydroxy-2-oxo-pyrrolidine-3-carboxamide], the IC50 was greater than 10000 nM. As to `CN(c1cccc(N2CC[C@](O)(C(=O)NCc3cc(F)cc(Cl)c3)C2=O)c1)S(C)(=O)=O` [A165, N-(3-Chloro-5-fluorobenzyl)-(S)-3-hydroxy-1-[3-(methane-sulfonylmethylamino)phenyl]-2-oxopyrrolidine-3-carboxamide], the half-maximal inhibitory concentration (IC50) lay within 10 to 1000 nM. For `CN(c1cccc(N2CC[C@@](O)(C(=O)NCc3cc(F)cc(Cl)c3)C2=O)c1)S(C)(=O)=O` [A166, N-(3-Chloro-5-fluorobenzyl)-(R)-3-hydroxy-1-[3-(methane-sulfonylmethylamino)phenyl]-2-oxopyrrolidine-3-carboxamide] the value was 1000 to 10000 nM.

Consider `O=C1COCCN1c1ccc(N2CCC(O)(C(=O)NCc3cc(F)cc(Cl)c3)C2=O)cn1` (centres unmarked) [A167, N-(3-Chloro-5-fluorobenzyl)-3-hydroxy-2-oxo-1-[6-(3-oxo-morpholin-4-yl)-pyridin-3-yl]-pyrrolidine-3-carboxamide], for which the half-inhibitory concentration (IC50) was 10 to 1000 nM. In the case of `O=C(NCCc1cc(F)cc(Cl)c1)C1(O)CCN(c2ccc3[nH]ncc3c2)C1=O` (centres unmarked) [A168], the IC50 lay in the range of 10 to 1000 nM.

For `O=C(NCc1cc(F)cc(Cl)c1)C1(O)CCN(c2cnn(-c3ccccc3)c2)C1=O` (centres unmarked) [A169, N-(3-Chloro-5-fluorobenzyl)-3-hydroxy-2-oxo-1-(1-phenyl-1H-pyrazol-4-yl)pyrrolidine-3-carboxamide], the IC50 lay in the range of 10 to 1000 nM. For `CC(C)(C)OC(=O)N1CCC(n2cc(N3CCC(O)(C(=O)NCc4cc(F)cc(Cl)c4)C3=O)cn2)CC1` (centres unmarked) [A170, tert-Butyl 4-{4-[3-(3-chloro-5-fluorobenzylcarbamoyl)-3-hydroxy-2-oxopyrrolidin-1-yl]-pyrazol-1-yl}-piperidine-1-carboxylate] the value was 10 to 1000 nM; for `CCC(=O)Nc1ccc(N2CC[C@](O)(C(=O)NCc3cc(F)cc(Cl)c3)C2=O)cn1` [A171, N-(3-Chloro-5-fluorobenzyl)-(S)-3-hydroxy-2-oxo-1-(6-propionylaminopyridin-3-yl)-pyrrolidine-3-carboxamide], 10 to 1000 nM. Take `CCC(=O)Nc1ccc(N2CC[C@@](O)(C(=O)NCc3cc(F)cc(Cl)c3)C2=O)cn1` [A172, N-(3-Chloro-5-fluorobenzyl)-(R)-3-hydroxy-2-oxo-1-(6-propionylaminopyridin-3-yl)-pyrrolidine-3-carboxamide]: the concentration for half-maximal inhibition (IC50) fell in the range of 1000 to 10000 nM. Turning to `O=C(NCc1cc(F)cc(Cl)c1)C1(O)CCN(c2ccc(N3CCOCC3)nc2)C1=O` (centres unmarked) [A173, N-(3-Chloro-5-fluorobenzyl)-3-hydroxy-1-(6-morpholin-4-yl-pyridin-3-yl)-2-oxopyrrolidine-3-carboxamide], the concentration for half-maximal inhibition (IC50) lay in the range of 10 to 1000 nM.

As to `CC(=O)Nc1ccc(N2CCC(O)(C(=O)NCCc3cccc(F)c3)C2=O)cn1` (centres unmarked) [A174, N-[2-(3-Fluorophenyl)ethyl]-1-(6-acetylaminopyridin-3-yl)-3-hydroxy-2-oxopyrrolidine-3-carboxamide], the half-inhibitory concentration (IC50) fell in the range of 10 to 1000 nM. As for `CC(=O)Nc1ccc(N2CCC(O)(C(=O)NCCc3ccccc3F)C2=O)cn1` (centres unmarked) [A175, N-[2-(2-Fluorophenyl)ethyl]-1-(6-acetylaminopyridin-3-yl)-3-hydroxy-2-oxopyrrolidine-3-carboxamide], the figure is 10 to 1000 nM; as for `CC(=O)Nc1ccc(N2CCC(O)(C(=O)NCc3cc(F)cc(F)c3)C2=O)cn1` (centres unmarked) [A176, N-(3,5-Difluorobenzyl)-1-(6-acetylaminopyridin-3-yl)-3-hydroxy-2-oxopyrrolidine-3-carboxamide], 10 to 1000 nM; as for `NC(=O)c1cccc(N2CCC(O)(C(=O)NCCc3cccc(F)c3)C2=O)c1` (centres unmarked) [A177, N-[2-(3-Fluorophenyl)ethyl]-1-(3-carbamoylphenyl)-3-hydroxy-2-oxopyrrolidine-3-carboxamide], 10 to 1000 nM.

Regarding `NC(=O)c1cccc(N2CCC(O)(C(=O)NCc3cc(F)cc(F)c3)C2=O)c1` (centres unmarked) [A178, N-(3,5-Difluorobenzyl)-1-(3-carbamoylphenyl)-3-hydroxy-2-oxopyrrolidine-3-carboxamide], the IC50 is 10 to 1000 nM. Consider `NC(=O)c1cccc(N2CCC(O)(C(=O)NCCc3ccccc3F)C2=O)c1` (centres unmarked) [A179, N-[2-(2-Fluorophenyl)ethyl]-1-(3-carbamoylphenyl)-3-hydroxy-2-oxopyrrolidine-3-carboxamide], for which the half-inhibitory concentration (IC50) lay in the range of 10 to 1000 nM. For the compound `O=C(NCc1cc(F)cc(Cl)c1)C1(O)CCN(c2cnn(C3CCNCC3)c2)C1=O` (centres unmarked) [A180, N-(3-Chloro-5-fluorobenzyl)-3-hydroxy-2-oxo-1-(1-piperidin-4-yl-1H-pyrazol-4-yl)pyrrolidine-3-carboxamide], the half-maximal inhibitory concentration (IC50) lay within 10 to 1000 nM.

With `COc1ccc(CN2CC[C@](O)(C(=O)NCc3cc(F)cc(Cl)c3)C2=O)cc1` [A181, N-(3-Chloro-5-fluorobenzyl)-(S)-3-hydroxy-1-(4-methoxybenzyl)-2-oxopyrrolidine-3-carboxamide], the half-inhibitory concentration (IC50) lay in the range of 10 to 1000 nM. As for `COc1ccc(CN2CC[C@@](O)(C(=O)NCc3cc(F)cc(Cl)c3)C2=O)cc1` [A182, N-(3-Chloro-5-fluorobenzyl)-(R)-3-hydroxy-1-(4-methoxybenzyl)-2-oxopyrrolidine-3-carboxamide], the IC50 is greater than 10000 nM. As for `O=C1CCc2cc(N3CCC(O)(C(=O)NCCc4cccc(F)c4)C3=O)ccc2N1` (centres unmarked) [A183, N-[2-(3-Fluorophenyl)ethyl]-3-hydroxy-2-oxo-1-(2-oxo-1,2,3,4-tetrahydroquinolin-6-yl)-pyrrolidine-3-carboxamide], the figure is 10 to 1000 nM. With `O=C1CCc2cc(N3CCC(O)(C(=O)NCCc4ccccc4F)C3=O)ccc2N1` (centres unmarked) [A184, N-[2-(2-Fluorophenyl)ethyl]-3-hydroxy-2-oxo-1-(2-oxo-1,2,3,4-tetrahydroquinolin-6-yl)-pyrrolidine-3-carboxamide], the half-maximal inhibitory concentration (IC50) lay within 10 to 1000 nM. For `CC(=O)Nc1ccc(N2CCC(O)(C(=O)NCc3cccc(F)c3Cl)C2=O)cn1` (centres unmarked) [A186, N-(2-Chloro-3-fluorobenzyl)-1-(6-acetylaminopyridin-3-yl)-3-hydroxy-2-oxopyrrolidine-3-carboxamide] the value was 10 to 1000 nM; for `O=C(CN1CCC(O)(C(=O)NCc2cc(F)cc(Cl)c2)C1=O)Nc1ccccc1` (centres unmarked) [A187, N-(3-Chloro-5-fluorobenzyl)-3-hydroxy-2-oxo-1-phenyl-carbamoylmethylpyrrolidine-3-carboxamide], 1000 to 10000 nM. For the compound `CC(=O)Nc1ccc(N2CCC(O)(C(=O)NCCc3cc(F)cc(F)c3)C2=O)cn1` (centres unmarked) [A188, N-[2-(3,5-Difluorophenyl)ethyl]-1-(6-acetylaminopyridin-3-yl)-3-hydroxy-2-oxopyrrolidine-3-carboxamide], the 50% inhibitory concentration (IC50) was 10 to 1000 nM. For `O=C(NCCc1cc(F)cc(Cl)c1)[C@@]1(O)CCN(c2ccc3[nH]ncc3c2)C1=O` [A191, N-[2-(3-Chloro-5-fluorophenyl)-ethyl]-(S)-3-hydroxy-1-(1H-indazol-5-yl)-2-oxopyrrolidine-3-carboxamide] the value was 10 to 1000 nM; for `O=C(NCCc1cc(F)cc(Cl)c1)[C@]1(O)CCN(c2ccc3[nH]ncc3c2)C1=O` [A192, N-[2-(3-Chloro-5-fluorophenyl)-ethyl]-(R)-3-hydroxy-1-(1H-indazol-5-yl)-2-oxopyrrolidine-3-carboxamide], 1000 to 10000 nM.

On to `NC(=O)c1cccc(N2CCC(O)(C(=O)NCc3cccc(F)c3Cl)C2=O)c1` (centres unmarked) [A193, N-(2-Chloro-3-fluorobenzyl)-1-(3-carbamoylphenyl)-3-hydroxy-2-oxopyrrolidine-3-carboxamide], for which the IC50 lay in the range of 10 to 1000 nM.
